Results reported in US8026282B2, “Phenoxyalkylcarboxylic acid derivatives in the treatment of irritable bowel syndrome” (Medicinova, Inc., priority 2004, dated 2011).

Tests used:
[1] = biological target: Adrenergic, NE Transporter (Homo sapiens, UniProt P23975); experiment: Biochemical assay Adrenergic, NE Transporter; format: binding; conditions: Hu; for Ki: value in parentheses
[2] = biological target: T1, PDE6 (Bos taurus, UniProt P11541+P23439); experiment: Biochemical assay PDE6; conditions: PDE6, Bov
T1 sequence (P11541 1-859): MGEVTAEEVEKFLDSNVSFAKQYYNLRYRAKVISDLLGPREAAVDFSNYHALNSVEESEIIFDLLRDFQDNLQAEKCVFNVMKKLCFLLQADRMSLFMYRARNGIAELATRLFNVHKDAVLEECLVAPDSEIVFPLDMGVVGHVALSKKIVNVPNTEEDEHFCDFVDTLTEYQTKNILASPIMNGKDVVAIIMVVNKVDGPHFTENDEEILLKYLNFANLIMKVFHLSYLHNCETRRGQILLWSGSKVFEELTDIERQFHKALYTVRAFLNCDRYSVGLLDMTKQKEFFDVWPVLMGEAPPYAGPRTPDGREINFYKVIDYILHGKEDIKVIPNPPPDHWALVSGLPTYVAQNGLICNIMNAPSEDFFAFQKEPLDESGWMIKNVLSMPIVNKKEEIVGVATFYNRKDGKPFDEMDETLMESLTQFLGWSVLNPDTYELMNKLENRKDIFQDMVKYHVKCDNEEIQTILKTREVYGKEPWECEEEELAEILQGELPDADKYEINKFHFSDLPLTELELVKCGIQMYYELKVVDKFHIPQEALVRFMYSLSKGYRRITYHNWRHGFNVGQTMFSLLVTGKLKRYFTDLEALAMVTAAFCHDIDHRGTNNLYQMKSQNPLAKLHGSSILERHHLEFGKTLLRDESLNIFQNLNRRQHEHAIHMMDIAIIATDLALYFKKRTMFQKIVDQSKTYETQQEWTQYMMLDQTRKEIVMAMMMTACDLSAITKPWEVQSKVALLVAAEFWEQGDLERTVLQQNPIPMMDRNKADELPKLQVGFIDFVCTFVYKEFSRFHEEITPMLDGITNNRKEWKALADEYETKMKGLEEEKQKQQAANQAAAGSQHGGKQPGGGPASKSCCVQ
T1 sequence (P23439 1-853): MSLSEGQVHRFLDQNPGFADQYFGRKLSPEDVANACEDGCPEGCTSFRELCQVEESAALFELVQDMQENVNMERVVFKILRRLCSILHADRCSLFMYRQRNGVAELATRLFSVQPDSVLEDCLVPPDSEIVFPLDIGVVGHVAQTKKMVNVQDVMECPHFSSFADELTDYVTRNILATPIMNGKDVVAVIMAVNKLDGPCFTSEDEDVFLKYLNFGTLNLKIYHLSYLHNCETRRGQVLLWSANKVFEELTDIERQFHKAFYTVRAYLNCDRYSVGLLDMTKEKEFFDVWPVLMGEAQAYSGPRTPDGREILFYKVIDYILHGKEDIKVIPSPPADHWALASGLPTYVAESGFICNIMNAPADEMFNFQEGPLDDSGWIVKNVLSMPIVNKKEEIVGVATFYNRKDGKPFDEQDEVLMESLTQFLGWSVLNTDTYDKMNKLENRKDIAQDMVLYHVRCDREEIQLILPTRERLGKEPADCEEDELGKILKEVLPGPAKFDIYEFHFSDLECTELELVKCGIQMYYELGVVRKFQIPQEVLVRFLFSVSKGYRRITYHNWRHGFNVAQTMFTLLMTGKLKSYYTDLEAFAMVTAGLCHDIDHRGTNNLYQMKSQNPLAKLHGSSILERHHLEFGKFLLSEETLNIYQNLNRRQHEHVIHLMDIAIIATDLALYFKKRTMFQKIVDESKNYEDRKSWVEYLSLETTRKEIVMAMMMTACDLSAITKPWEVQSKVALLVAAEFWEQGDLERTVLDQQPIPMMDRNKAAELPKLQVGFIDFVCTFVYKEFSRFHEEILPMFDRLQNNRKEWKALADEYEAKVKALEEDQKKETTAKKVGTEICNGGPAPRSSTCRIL

[3] = biological target: PDE5 (Homo sapiens, UniProt O76074); experiment: Biochemical assay PDE5; conditions: PDE5, Hu
[4] = biological target: LTB4 (Homo sapiens, UniProt Q15722); experiment: Biochemical assay LTB4; format: binding; conditions: LTB4, Hu
[5] = Form present in human plasma; format: in vivo; conditions: metabolite of compound 1, human plasma

Adrenergic, NE Transporter, sequence (P23975 whole entry): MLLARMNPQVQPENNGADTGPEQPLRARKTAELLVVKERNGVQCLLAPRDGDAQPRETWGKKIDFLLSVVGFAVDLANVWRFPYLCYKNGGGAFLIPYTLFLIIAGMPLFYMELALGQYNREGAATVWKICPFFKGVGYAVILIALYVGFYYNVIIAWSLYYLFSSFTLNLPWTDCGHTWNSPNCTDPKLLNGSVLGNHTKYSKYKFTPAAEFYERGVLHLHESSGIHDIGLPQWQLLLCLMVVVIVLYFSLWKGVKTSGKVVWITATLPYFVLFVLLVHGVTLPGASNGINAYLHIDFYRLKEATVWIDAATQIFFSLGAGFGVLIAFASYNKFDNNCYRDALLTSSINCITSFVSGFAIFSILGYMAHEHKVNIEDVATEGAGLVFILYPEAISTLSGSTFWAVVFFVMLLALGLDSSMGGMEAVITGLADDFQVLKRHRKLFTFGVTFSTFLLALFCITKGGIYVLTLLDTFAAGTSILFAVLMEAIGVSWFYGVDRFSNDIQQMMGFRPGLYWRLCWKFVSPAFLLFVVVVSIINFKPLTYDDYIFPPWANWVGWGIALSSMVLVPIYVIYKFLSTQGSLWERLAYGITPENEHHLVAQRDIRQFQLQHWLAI
LTB4, sequence (Q15722 whole entry): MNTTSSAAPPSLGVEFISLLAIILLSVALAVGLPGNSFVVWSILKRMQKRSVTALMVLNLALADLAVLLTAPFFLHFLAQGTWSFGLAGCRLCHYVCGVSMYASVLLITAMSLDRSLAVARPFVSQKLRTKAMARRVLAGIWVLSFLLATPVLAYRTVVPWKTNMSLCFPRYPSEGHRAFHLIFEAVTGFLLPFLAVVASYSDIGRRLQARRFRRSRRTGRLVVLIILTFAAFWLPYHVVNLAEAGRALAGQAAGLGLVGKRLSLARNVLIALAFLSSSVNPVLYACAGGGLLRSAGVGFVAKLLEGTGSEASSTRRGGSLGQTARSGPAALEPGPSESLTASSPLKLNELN

Row | IC50 [1] [µM] | Ki [1] [µM] | IC50 [2] [µM] | IC50 [3] [µM] | IC50 [4] [µM] | Ki ([4]; value in parentheses) [µM] | form in human plasma [5] | SMILES
1 | 3.5 | 3.47 | 2.05 | 12.7 | 9.02 | 2.29 |  | CCCc1c(SCCCOc2ccc(C(C)=O)c(OCCCC(=O)O)c2CCC)ccc(C(C)=O)c1O [Compound 1, 4-[6-acetyl-3-[3-(4-acetyl-3-hydroxy-2-propylphenylthio)propoxy]-2-propylphenoxy]butyric acid]
2 | 2.05 | 2.03 | 1.73 | 8.47 |  |  | dominant form | CCCc1c(SCCCOc2ccc(C(C)O)c(OCCCC(=O)O)c2CCC)ccc(C(C)=O)c1O (centres unmarked) [Compound 2]
